Reference: ChEMBL document CHEMBL1667794, “Synthesis of bi-substrate state mimics of dihydropteroate synthase as potential inhibitors and molecular probes” (Bioorg Med Chem, 2011)

Legend:
[1] = target: T1, Dihydropteroate synthase (Bacillus anthracis) (UniProt Q81VW8); experiment: Inhibition of Bacillus anthracis DHPS at 200 uM
T1 sequence (whole entry): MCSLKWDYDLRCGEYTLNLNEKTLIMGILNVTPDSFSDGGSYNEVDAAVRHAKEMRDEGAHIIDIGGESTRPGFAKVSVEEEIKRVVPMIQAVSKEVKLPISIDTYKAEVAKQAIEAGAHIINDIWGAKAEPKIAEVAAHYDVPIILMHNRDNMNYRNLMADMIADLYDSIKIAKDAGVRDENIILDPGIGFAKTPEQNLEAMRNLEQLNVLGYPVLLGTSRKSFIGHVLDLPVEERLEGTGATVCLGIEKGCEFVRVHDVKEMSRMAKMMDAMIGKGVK

[2] = target: T1, Dihydropteroate synthase (Bacillus anthracis); experiment: Inhibition of Bacillus anthracis DHPS at 200 uM after 10 mins

Compound	inhibition [1] [%]	inhibition [2] [%]
Nc1nc2ncc(N(CCCP(=O)(O)O)Cc3ccc(C(=O)O)cc3)cc2c(=O)[nH]1	32.9	44.3
Nc1nc2c(c(=O)[nH]1)CC(N(CCP(=O)(O)O)Cc1ccc(C(=O)O)cc1)CN2 (stereo not drawn)	3.6	5.7
Nc1nc2ncc(N(CCP(=O)(O)O)Cc3ccc(C(=O)O)cc3)cc2c(=O)[nH]1	16.3	30.5
Nc1nc2c(c(=O)[nH]1)C[C@@H](N(CCCP(=O)(O)O)Cc1ccc(C(=O)O)cc1)CN2	3.9	6.3
